A short description of data set [1]: Apparent permeability in Calu-3 cell line. Type of data set: in vitro ADME. The note with it: human; air–liquid interface.
Data set [2] concerns 14 PA clinical isolates from bronchiectasis patients. As to the kind of experiment: Pyocyanin inhibition assay in clinical isolates. The note with it: 2 × 10^−6 M 24, LB-medium, 16 h. Type of data set: cell-based, Pseudomonas aeruginosa. On the procedure: Pyoverdine determinations. Precultures of each strain were grown 20 h at 37°C in M9 minimal […]
with 30 mM succinate, 2 mM MgSO , 10 μM FeSO and 2.5 mL L−1 of trace elements solution.[10] Next, […]
5 µl of each culture were transferred to 10 ml of M9 minimal medium devoid of iron and trace element solution, and cultured again for 24 h at 37°C with constant shaking. After incubation, the OD600 of the cultures was determined: The cell contained in 1 mL medium were harvested by centrifugation (5 min; 14,000 rpm) and the absorbance at 405 nm (A405nm) of 0.8 ml of the supernatant was determined spectrophotometrically and normalized to the OD600 of the culture measured before (i.e. A405nm, OD600-1). PA14 and PAO1 were also assayed as controls. The experiments were carried out at least in triplicates.
Pyocyanin inhibition assay. The inhibition of pyocyanin production in the clinical isolates (CIs) and the type strains (PA14 and PAO1) was tested by the treatment of LB-grown cultures incubated for 16 h at 37°C with constant shaking with 2 µM of 24/DMSO or with 2 µl of DMSO as control. Pyocyanin extraction and quantification were carried out as described in section 1.2.2. Pyocyanin concentrations (μg mL −1) were calculated by multiplication of its absorbance at 520 nm with a […]
correction factor of 17.072, and normalized to the OD600 of the culture.

In data set [3] the target is T1, Kv1.3 potassium channel (Homo sapiens, UniProt P22001).
T1 construct: host or cells: CHO cells
As to the kind of experiment: Ion channel profiling at Charles River: Kv1.3. The data set is classed as cell-based. The note with it: expressed in CHO cells; read-out: ESTIMATED IC50. The method, then: 1.4.3 Ion Channel Profiling at Charles River
Table S9. Compound 24 was tested against the following ion channels at Charles River Laboratories.
ASSAY TYPE ION CHANNEL AND EXPRESSION SYSTEM ESTIMATED […]
ScreenPatch Assay Kv1.3 potassium channel (human KCNA3 gene) expressed in CHO […]
FLIPR Assay expressed in HEK293 cells
GABAA α5/β3/γ2 ionotropic receptor (human GABRA5, GABRB3, >30
and GABRG2 genes, expressed in HEK293 cells

T1 sequence (P22001 whole entry): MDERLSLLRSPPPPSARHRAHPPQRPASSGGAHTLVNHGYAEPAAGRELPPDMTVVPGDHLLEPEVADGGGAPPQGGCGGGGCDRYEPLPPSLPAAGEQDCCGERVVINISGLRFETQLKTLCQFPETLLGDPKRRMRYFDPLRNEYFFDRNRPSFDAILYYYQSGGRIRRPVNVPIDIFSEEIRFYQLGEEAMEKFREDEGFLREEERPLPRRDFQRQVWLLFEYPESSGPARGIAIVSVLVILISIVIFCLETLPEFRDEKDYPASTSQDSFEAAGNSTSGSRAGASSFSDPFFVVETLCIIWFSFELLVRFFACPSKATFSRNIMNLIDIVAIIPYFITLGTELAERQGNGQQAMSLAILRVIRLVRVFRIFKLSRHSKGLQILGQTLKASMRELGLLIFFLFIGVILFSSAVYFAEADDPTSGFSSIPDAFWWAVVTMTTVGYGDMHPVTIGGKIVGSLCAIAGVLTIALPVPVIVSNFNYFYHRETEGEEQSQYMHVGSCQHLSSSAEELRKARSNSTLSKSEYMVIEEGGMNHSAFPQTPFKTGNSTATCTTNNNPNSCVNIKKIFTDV

As to `CC(C)Oc1ccc(-c2ncc(CNc3ccnc(C(F)(F)F)c3)cn2)cc1Cl` [Compound 24], the Papp – broadly, a coefficient for how fast a substance crosses the barrier – at 4 h in data set [1] turned out to be 3.1 ± 0.28 ×10⁻⁶ cm/s. Further, the “Production of pyocyanin by clinical isolates” value in data set [2] is “dramatic reduction”. In addition, the IC50 (commonly the concentration at which inhibition is half-maximal) in data set [3] was > 30 µM.

The values above are taken from paper PMC9929129, “Towards Translation of PqsR Inverse Agonists: From In Vitro Efficacy Optimization to In Vivo Proof‐of‐Principle” (Advanced Science, 2023).
